These results are taken from ChEMBL document CHEMBL1201862, “PubChem BioAssay data set” (2004).

Calls of active or inactive are those of the source.

In one series the target is Prothrombin (Homo sapiens, UniProt P00734). Kind of series: Thrombin 1536 HTS Dose Response Confirmation. [Related pubchem assays: 1046 (Thrombin 1536 HTS; hits were confirmed in this assay)]. The series is classed as functional.
The test system of the next series is Saccharomyces cerevisiae. The series is described as follows: S. cerevisiae Caspase-1/ASC signal blockers IC50, NALP1 inhibitor project selectivity test (AID 488863). The series is classed as functional, organism-based.
The target in series [1] is NACHT, LRR and PYD domains-containing protein 1 (Homo sapiens, UniProt Q9C000). Kind of series: NALP1 inhibitors in yeast, dose response, luminescent (AID 488860). The series is classed as functional.
Chain of NACHT, LRR and PYD domains-containing protein 1 (Q9C000 1-1212 limits assumed): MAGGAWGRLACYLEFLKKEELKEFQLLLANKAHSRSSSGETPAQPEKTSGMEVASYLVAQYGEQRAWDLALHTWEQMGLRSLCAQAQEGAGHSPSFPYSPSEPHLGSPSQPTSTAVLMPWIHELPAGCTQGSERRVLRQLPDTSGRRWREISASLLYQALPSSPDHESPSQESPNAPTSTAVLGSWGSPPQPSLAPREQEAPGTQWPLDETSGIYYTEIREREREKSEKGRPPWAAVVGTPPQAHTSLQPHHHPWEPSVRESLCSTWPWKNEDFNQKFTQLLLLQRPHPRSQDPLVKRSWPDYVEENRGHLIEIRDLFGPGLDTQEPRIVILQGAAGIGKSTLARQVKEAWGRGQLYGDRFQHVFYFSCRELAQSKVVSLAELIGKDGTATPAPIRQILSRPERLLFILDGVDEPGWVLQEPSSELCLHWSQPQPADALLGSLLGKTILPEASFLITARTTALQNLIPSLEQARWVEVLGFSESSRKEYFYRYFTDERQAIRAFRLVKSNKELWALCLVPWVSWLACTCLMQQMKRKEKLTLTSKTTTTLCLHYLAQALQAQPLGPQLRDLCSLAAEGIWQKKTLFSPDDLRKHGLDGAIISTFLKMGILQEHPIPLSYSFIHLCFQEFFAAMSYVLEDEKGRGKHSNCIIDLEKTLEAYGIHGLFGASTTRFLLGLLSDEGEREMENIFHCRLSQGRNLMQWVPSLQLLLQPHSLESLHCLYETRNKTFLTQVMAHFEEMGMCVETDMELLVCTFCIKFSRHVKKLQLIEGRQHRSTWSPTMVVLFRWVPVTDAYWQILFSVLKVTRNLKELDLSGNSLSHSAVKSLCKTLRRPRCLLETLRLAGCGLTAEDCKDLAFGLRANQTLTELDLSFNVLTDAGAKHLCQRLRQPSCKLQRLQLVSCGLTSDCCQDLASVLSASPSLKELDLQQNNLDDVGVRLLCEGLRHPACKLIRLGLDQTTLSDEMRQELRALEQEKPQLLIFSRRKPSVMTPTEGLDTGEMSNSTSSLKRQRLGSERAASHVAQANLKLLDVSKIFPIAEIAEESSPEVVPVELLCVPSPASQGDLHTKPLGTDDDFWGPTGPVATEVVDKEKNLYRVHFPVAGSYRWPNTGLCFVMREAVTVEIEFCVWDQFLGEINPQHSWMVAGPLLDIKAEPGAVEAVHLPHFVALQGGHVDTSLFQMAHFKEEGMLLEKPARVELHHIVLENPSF
Chain of NACHT, LRR and PYD domains-containing protein 1 (Q9C000 1213-1473 limits assumed): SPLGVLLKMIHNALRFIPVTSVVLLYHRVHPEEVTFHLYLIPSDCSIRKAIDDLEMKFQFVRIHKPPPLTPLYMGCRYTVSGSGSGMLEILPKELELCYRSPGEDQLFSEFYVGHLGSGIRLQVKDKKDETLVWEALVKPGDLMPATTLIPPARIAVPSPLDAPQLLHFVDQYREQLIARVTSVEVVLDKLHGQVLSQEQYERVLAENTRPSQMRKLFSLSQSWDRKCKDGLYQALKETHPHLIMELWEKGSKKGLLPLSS
The target in another series is Trypsin (Sus scrofa, UniProt P00761). Kind of series: trypsin protease activity blockade – biochemical, quenched peptide fluorescence, cherry-pick, selectivity assay for Rce1 protease inhibitor project, dose response (AID 488789).
Chain of Trypsin (P00761 whole entry): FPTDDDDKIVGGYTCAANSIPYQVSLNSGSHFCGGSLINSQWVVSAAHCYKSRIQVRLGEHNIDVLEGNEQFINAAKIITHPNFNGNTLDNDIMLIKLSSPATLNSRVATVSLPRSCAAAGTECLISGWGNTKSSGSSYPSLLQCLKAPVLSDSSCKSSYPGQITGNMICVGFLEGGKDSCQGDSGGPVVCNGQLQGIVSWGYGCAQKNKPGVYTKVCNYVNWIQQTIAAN
The target in series [2] is T1, CAAX prenyl protease 2 (Homo sapiens, UniProt Q9Y256).
T1 sequence (Q9Y256 whole entry): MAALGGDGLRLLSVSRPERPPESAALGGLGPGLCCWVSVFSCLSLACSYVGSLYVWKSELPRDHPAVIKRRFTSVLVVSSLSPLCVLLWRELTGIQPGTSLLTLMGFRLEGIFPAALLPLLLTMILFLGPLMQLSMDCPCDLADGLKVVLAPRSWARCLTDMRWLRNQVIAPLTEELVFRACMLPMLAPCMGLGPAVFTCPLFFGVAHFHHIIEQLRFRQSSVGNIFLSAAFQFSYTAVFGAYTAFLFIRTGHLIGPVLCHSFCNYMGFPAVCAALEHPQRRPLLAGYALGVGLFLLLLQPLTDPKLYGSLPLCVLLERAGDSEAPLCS
Kind of series: inhibition of Ras-converting CAAX protease Rce1 – biochemical, yeast membranes, quenched-peptide fluorescence, cherry-pick, dose response (AID 588849).

For series [3], the system named is Streptococcus sp. 'group A'. Kind of series: Streptococcus pyogenes SK(-)GAS viability under kanamycin – luminescence, BacTiterGlo, confirmation, counter-screen for streptokinase expression inhibitor project, dose response (AID 1900). In kind it is functional, organism-based.
The target in another series is T2, Streptokinase A (Streptococcus pyogenes serotype M1, UniProt P10520).
T2 sequence (P10520 whole entry): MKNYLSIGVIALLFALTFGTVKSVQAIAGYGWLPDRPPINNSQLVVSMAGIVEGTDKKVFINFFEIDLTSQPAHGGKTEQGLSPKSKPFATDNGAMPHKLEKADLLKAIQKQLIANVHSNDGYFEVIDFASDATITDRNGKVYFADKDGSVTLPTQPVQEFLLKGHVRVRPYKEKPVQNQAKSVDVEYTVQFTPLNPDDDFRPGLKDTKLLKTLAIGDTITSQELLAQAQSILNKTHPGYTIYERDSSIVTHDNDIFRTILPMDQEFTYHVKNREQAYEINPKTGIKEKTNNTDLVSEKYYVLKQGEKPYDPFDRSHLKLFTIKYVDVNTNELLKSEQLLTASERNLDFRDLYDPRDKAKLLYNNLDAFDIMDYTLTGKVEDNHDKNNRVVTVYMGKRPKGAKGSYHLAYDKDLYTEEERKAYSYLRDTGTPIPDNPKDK
Kind of series: viability-normalized secreted streptokinase activity reduction – plasminogen activation absorbance, OD405, dose response (AID 1914).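 Further: secreted streptokinase activity via plasminogen activation per viability signal from cell pellet.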 In kind it is functional, Streptococcus pyogenes M1 GAS.

A further series relates to Streptococcus. The series is described as follows: GAS UMAA2166 growth inhibition – luminescence, BacTiterGlo, counter-screen for streptokinase expression inhibitor project, dose response (AID 1915).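 Further: potency for reduction of bacterial viability or growth.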 In kind it is functional, organism-based.
Series [4] has as its target CAAX prenyl protease 2 (Saccharomyces cerevisiae S288c, UniProt Q03530). In kind it is biochemical.
Series [5] deals with Voltage-dependent T-type calcium channel subunit alpha-1H (Homo sapiens, UniProt O95180). In kind it is functional.
In another series the target is T3, Cytochrome P450 1A2 (Homo sapiens, UniProt P05177).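 Further: PubChem cytochrome P450 panel assay, CYP1A2 panel member.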
T3 sequence (P05177 whole entry): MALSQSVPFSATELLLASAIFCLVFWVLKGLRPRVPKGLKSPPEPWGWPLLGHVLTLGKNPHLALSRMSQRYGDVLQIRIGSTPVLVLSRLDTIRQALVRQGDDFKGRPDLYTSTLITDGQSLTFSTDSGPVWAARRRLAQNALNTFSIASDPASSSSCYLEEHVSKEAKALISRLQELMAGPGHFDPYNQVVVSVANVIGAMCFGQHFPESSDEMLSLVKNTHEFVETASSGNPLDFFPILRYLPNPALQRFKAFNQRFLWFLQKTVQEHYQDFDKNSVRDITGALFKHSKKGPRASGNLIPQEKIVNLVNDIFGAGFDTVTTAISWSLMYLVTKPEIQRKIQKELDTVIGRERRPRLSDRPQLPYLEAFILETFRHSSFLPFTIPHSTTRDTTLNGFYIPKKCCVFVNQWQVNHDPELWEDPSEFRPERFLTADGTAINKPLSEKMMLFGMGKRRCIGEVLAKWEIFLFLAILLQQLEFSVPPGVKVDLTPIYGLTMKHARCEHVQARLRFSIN

The target of another series is Cytochrome P450 3A4 (Homo sapiens, UniProt P08684).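 Further: CYP3A4 tested as one member of a cytochrome P450 panel screen.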
Chain of Cytochrome P450 3A4 (P08684 whole entry): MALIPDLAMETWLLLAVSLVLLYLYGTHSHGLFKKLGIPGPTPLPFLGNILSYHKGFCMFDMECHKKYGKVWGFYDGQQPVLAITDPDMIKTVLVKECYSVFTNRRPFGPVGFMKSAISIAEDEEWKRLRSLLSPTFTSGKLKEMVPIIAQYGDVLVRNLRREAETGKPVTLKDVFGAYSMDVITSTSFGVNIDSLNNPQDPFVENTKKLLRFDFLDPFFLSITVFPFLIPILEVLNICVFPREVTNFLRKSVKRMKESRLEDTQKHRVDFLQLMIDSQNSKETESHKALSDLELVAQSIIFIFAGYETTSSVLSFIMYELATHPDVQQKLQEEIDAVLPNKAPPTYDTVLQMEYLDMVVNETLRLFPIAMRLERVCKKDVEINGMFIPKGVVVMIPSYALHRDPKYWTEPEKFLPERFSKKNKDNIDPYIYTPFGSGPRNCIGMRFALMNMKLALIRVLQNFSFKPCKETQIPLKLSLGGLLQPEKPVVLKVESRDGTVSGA
A further series deals with Cytochrome P450 2C9 (Homo sapiens, UniProt P11712).
Chain of Cytochrome P450 2C9 (P11712 whole entry, the tested form may be a part): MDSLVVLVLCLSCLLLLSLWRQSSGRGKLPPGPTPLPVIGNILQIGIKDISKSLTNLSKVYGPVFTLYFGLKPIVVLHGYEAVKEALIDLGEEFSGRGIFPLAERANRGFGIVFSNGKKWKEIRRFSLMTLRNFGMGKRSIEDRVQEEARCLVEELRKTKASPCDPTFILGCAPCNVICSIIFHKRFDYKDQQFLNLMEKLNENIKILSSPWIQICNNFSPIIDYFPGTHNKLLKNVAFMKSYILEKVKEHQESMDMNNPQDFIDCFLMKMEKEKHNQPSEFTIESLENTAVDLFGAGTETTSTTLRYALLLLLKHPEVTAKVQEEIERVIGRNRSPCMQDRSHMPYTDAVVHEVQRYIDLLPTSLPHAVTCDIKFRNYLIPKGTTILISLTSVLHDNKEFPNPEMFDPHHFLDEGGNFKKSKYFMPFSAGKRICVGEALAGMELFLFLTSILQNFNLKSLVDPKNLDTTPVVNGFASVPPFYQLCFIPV
The target of series [6] is T4, Runt-related transcription factor 1/Core-binding factor subunit beta (Homo sapiens, UniProt Q01196+Q13951). The series is described as follows: disruptors of Runt domain/CBFb-SMMHC interaction – biochemical, FRET, Cerulean-Runt, Venus-CBFb-SMMHC, uHTS, […] (AID 1434). In kind it is protein assay.
T4 sequence (Q01196 whole entry, the tested form may be a part): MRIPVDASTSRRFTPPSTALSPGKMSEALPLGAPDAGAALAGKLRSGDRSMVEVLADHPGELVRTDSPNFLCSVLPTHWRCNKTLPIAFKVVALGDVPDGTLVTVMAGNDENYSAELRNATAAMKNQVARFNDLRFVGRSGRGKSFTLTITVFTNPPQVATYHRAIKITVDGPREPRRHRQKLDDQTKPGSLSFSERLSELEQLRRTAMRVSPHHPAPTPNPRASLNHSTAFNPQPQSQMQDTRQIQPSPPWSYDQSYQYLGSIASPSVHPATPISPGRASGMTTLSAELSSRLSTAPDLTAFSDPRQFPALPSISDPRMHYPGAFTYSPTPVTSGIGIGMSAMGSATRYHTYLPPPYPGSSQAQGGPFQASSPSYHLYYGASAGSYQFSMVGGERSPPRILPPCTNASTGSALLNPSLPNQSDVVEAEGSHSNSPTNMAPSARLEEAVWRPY
T4 sequence (Q13951 whole entry, the tested form may be a part): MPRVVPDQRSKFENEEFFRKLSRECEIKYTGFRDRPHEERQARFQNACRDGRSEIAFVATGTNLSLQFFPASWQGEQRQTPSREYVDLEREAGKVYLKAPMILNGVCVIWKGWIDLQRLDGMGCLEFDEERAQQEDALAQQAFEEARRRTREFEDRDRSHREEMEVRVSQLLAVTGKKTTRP
The target of the next series is NS3 (Hepatitis C virus, UniProt A3EZJ3). Kind of series: PubChem AID 2173. Also noted: species or system Hepacivirus hominis.
Series [7] concerns the target T4, Runt-related transcription factor 1/Core-binding factor subunit beta. The series is described as follows: Runt domain/CBFb-SMMHC interaction disruptors – biochemical, TR-FRET (AID 1438). In kind it is protein assay.
The target in the next series is T5, Cysteine protease ATG4B (Homo sapiens, UniProt Q9Y4P1).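 Further: Fluorescence-based dose-response confirmation assay measuring inhibition of ATG4B activity.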
T5 sequence (Q9Y4P1 whole entry): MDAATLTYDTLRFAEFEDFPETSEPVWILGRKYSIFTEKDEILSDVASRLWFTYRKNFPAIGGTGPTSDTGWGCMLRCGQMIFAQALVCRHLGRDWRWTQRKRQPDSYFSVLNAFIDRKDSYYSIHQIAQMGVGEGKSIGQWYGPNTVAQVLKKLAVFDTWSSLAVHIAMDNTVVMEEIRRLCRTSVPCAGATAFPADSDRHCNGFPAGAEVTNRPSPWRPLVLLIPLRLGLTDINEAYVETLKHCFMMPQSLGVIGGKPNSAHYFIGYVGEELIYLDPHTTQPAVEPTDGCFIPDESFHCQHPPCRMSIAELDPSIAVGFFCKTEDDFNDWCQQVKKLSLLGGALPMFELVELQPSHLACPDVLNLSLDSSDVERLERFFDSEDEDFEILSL
In kind it is functional.

The next series has as its target Phospholipase A2 (Homo sapiens, UniProt P04054). In kind it is functional.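 Further: confirmatory dose-response counterscreen on phospholipase A2, testing hits that came from an ultra-high-throughput screen for ATG4B inhibitors.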
The nature of series [8]: viability loss in THP-1 monocytes – THP-1 cells, cytotoxicity control for Vif-APOBEC3G degradation inhibitor project, dose response (AID 1117359). The series is classed as functional. The note with it: THP-1.
In another series the target is Coagulation factor XII (Homo sapiens, UniProt P00748). The series is classed as functional.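 Further: activated factor XIIa alpha cleaving a fluorogenic AMC peptide substrate; inhibitor potency from loss of enzyme activity.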
Chain of Coagulation factor XII (P00748 20-372 limits assumed): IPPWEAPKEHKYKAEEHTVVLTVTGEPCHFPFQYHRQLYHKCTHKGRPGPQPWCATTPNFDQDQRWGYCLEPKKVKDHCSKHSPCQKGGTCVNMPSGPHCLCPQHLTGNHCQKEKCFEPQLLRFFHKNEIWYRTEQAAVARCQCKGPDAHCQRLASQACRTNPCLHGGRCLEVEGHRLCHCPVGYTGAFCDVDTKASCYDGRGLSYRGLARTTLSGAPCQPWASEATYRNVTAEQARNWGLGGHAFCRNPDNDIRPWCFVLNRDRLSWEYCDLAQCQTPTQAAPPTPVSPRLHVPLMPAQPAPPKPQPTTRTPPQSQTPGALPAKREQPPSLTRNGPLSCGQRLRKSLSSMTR
Chain of Coagulation factor XII (P00748 373-615 limits assumed): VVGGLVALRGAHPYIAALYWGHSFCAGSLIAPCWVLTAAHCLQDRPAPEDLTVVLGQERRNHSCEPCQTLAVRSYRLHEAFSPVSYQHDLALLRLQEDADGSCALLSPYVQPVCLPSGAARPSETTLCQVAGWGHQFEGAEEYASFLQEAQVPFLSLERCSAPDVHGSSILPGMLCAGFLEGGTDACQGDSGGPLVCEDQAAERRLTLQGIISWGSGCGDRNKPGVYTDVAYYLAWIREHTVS
The next series addresses Tumor necrosis factor (Homo sapiens, UniProt P01375). The series is described as follows: analog potency on TNFa NF-kB signaling – cell-based, revised, SAR follow-up (AID 2337). The series is classed as functional.
Series [9] has as its target T6, Nucleotide-binding oligomerization domain-containing protein 1 (Homo sapiens, UniProt Q9Y239).
T6 sequence (Q9Y239 whole entry): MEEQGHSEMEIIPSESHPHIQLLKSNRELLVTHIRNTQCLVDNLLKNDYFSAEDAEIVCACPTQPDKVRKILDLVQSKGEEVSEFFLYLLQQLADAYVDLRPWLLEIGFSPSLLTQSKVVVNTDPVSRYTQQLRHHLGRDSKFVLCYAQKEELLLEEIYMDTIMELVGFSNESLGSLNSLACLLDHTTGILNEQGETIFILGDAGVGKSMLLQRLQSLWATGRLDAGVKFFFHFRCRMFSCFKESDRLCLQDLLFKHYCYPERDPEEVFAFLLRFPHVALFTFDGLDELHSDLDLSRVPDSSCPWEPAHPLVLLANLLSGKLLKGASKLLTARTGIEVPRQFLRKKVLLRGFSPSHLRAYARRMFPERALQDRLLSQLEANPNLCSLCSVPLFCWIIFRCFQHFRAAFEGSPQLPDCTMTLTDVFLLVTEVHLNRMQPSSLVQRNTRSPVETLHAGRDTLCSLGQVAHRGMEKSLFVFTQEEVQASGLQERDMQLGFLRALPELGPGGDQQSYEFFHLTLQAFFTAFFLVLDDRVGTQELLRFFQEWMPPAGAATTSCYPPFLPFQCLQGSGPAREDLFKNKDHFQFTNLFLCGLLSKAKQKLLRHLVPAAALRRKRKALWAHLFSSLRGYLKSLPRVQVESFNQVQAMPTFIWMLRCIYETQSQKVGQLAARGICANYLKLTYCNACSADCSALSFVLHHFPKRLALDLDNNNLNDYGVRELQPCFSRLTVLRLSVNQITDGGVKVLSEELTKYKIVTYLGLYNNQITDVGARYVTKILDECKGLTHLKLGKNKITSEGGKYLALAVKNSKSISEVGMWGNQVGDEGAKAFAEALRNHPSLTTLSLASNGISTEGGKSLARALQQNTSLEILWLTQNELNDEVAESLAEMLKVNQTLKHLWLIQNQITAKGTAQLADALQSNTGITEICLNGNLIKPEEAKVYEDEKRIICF
Kind of series: blockers of NOD1 pathway activity – revised, SAR follow-up (AID 2333). In kind it is functional.

In another series the test system is HEK293. The series is described as follows: cells. The following applies: Homo sapiens.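 Further: cells exposed to compound for 14 hours overnight before viability readout.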
Series [10] concerns the target Kappa-type opioid receptor (Homo sapiens, UniProt P41145). Kind of series: SAR analysis of small molecule agonists of the kappa opioid receptor via a luminescent beta-arrestin assay - Set 3. [Related pubchem assays (depositor defined):AID1777, AID1785, AID1786, AID1966, AID2133, AID2136, AID2284, AID2500]. In kind it is functional.
Series [11] deals with Phosphoethanolamine/phosphocholine phosphatase (Homo sapiens, UniProt Q8TCT1). Kind of series: SAR assay for compounds that inhibit PHOSPHO1. [Related pubchem assays (depositor defined):AID1545, AID1565, AID1574].
Chain of Phosphoethanolamine/phosphocholine phosphatase (Q8TCT1 whole entry): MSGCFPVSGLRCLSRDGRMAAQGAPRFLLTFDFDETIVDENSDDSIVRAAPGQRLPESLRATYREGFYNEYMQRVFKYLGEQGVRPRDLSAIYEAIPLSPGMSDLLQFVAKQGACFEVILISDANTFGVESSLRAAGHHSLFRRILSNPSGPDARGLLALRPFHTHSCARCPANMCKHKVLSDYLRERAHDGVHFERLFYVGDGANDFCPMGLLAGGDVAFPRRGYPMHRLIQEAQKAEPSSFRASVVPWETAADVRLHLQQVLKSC

Chain of CAAX prenyl protease 2 (Saccharomyces cerevisiae S288c, UniProt Q03530) (Q03530 whole entry): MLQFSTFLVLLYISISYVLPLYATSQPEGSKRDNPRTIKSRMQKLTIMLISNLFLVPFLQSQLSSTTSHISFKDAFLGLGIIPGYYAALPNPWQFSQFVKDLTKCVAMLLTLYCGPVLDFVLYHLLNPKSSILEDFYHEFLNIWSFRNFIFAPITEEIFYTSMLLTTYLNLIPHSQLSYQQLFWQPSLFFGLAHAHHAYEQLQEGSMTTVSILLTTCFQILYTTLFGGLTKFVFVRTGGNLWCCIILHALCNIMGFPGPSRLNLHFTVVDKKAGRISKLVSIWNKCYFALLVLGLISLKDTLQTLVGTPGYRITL
Chain of Kappa-type opioid receptor (P41145 whole entry): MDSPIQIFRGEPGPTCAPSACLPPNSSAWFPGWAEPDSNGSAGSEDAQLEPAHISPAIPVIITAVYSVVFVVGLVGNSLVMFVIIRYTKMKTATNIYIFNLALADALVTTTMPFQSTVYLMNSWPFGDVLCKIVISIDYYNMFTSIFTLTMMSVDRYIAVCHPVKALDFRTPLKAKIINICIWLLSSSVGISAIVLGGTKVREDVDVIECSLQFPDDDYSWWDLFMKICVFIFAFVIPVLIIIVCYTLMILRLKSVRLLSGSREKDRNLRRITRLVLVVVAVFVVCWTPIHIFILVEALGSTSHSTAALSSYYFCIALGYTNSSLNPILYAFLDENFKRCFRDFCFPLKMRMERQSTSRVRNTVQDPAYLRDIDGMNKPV

Take `Cc1ccc2c(c1)c1c3n2CCCNC3CCC1` (centres undefined): the IC50 (as a rule, the midpoint of a concentration-inhibition curve) against Prothrombin was > 50 µM (not active); in the series on Saccharomyces cerevisiae, 87.6 µM (active); in series [1], > 100 µM (inactive).

Consider `COc1cc2nc3c(O)n(CCN4CCOCC4)cnc-3c2cc1OC`, for which the AC50 (as a rule, the midpoint of the concentration-response curve, whichever way the signal moves) is 16.1 µM (active) at Trypsin and 9.95 µM (active) on CAAX prenyl protease 2 [2].

`CCCCNc1c(-c2ccc(SC(C)CC)c(OC)c2)nc2ccc(C)cn12` (centres undefined): the EC50 – broadly, the concentration at which the effect is half-maximal – in [3] was 3.09 µM (active); at Streptokinase A, 8.79 µM (active); in the series on Streptococcus, 10.2 µM (active). Also, the AC50 at Trypsin was 2.63 µM (active); at CAAX prenyl protease 2 [4], 39.7 µM (active); at CAAX prenyl protease 2 [2], 32.5 µM (active).

With `c1coc(-c2ccnc3ncnn23)c1`, the values for the AC50 on CAAX prenyl protease 2 [4] and at CAAX prenyl protease 2 [2] were 24.5 µM (active) and 3.88 µM (active), respectively.

For the compound `CN(C)c1ccc(/C=C2\SC(=S)N(Nc3ncc(C(F)(F)F)cc3Cl)C2=O)cc1`, the EC50 in [5] is 2.86 µM (active). For the same compound, the concentration at half-maximal activity (AC50) at Cytochrome P450 1A2 is 5.01 µM (inconclusive); on Cytochrome P450 3A4 it was 14.1 µM (inconclusive); at Cytochrome P450 2C9 it was “inconclusive”.

For `CC1CCCCC1NC(=O)COC(=O)c1c2c(nc3ccccc13)/C(=C/c1ccco1)CC2` (centres undefined), the IC50 in [6] is > 100 µM (inactive); against NS3 it was 11.1 µM (not active); in [7], 10.6 µM (active); on Cysteine protease ATG4B, 14.4 µM (active); at Phospholipase A2 it was 8.31 µM (active). In addition, the CC50 – broadly, the concentration giving 50% cytotoxicity – in [8] is > 40 µM (active).

For the compound `CCOCCCn1c(=N)c(C(N)=S)cc2c(=O)n3cccc(C)c3nc21`, the IC50 was 0.257 µM (active) in [6] and 68.8 µM (inactive) in [7].

For the compound `C=C(C)C(=O)Nc1nnc(-c2cccs2)s1`, the IC50 with Saccharomyces cerevisiae was 15 µM (active); in series [1], 11 µM (active).

For the compound `O=C(Nc1ncnc2sc3c(c12)CCCCC3)c1ccc(F)cc1`, the IC50 at Coagulation factor XII is > 50 µM (inactive).

For the compound `COC(=O)c1c(NC(=O)c2ccc(Cl)cc2)sc2c1CCCC2`, the IC50 (at Tumor necrosis factor; in series [9]; in the series on HEK293) was > 20 µM (inactive) in each case.

Take `Brc1ccc(-c2nnc(SCc3ccccc3)n2Cc2ccco2)cc1`: the EC50 in series [10] is > 20 µM (inactive).

Consider `c1ccc(Nc2nc(-c3ccccc3)[n+](-c3ccccc3)s2)cc1`, for which the IC50 in series [11] is 4.99 µM (inactive).

With `CN(C)c1ccc(C(=S)N2CCOCC2)cc1` [(4-(DIMETHYLAMINO)PHENYL)(MORPHOLINO)METHANETHIONE], at Coagulation factor XII, the IC50 was > 50 µM (inactive).
